Results on two compounds are retold here after US20250011298A1, “CRYSTALLINE FORMS OF A CDK9 INHIBITOR AND USES THEREOF” (PRELUDE THERAPEUTICS INCORPORATED, priority 2021, published 2025).

This series can be described thus: Thermogravimetric analysis (TGA) of crystalline forms. In kind it is physicochemical. To be noted: TGA thermogram; ramp from 25° C. to 600° C. at 20° C./min, nitrogen purge. As for the experimental part:
Crystalline forms of the compound of Formula I were analyzed using a TA Instruments Thermogravimetric Analyzer, TGA Q500 with autosampler. The general experimental conditions for TGA were ramp from 25° C. 600° C. at 20° C./min; nitrogen purge, gas flow at 25 mL/min; platinum sample pan.

Take `Cc1cnc(NC(=O)[C@H]2CCC[C@@H](NC(=O)CC#N)C2)cc1-c1cc(F)c2ncn(C(C)C)c2c1` [Form II]: the “TGA: degradation occurring after” value was > 176 °C. As for `Cc1cnc(NC(=O)[C@H]2CCC[C@@H](NC(=O)CC#N)C2)cc1-c1cc(F)c2ncn(C(C)C)c2c1` [Form I], the “TGA: degradation occurring after” value is > 176 °C.
